Among the data in patent publication US8575119B2, “2′-chloroacetylenyl substituted nucleoside derivatives” (Enanta Pharmaceuticals, Inc., priority 2011, dated 2013) are EC50 values, retold here.

Usually EC50 stands for the concentration giving half of the maximal effect.

One test has as its system HCV 1a genotype replicon. Kind of test: HCV replicon assay, qRT-PCR, genotype 1a (Huh-1a7 replicon cell line). The class given is cell-based, HCV (strain H77. The conditions noted are these: Hepatitis C virus; Genotype-1a replicon, HCV RNA by qRT-PCR normalized to GAPDH RNA. The text has this: (§1) HCV replicon cell lines (kindly provided by R. Bartenschlager) isolated from colonies as described by Lohman et al. (Lohman et al. (1999) Science 285: 110-113, expressly incorporated by reference in its entirety) and used for all experiments. One of the HCV replicon cell lines (strain Conl, genotype 1b) has the nucleic acid sequence set forth in EMBL Accession No.: AJ242651, the coding sequence of which is from nucleotides 1801 to 8406. Another replicon cell line (strain H77, genotype 1a) was constructed as described by Yi et. al. (Yi et. al. (2004) Journal of Virology 78(15):7904-15). The coding sequences of the published HCV replicons were synthesized and subsequently assembled in plasmids using standard molecular biology techniques.
(§2) One replicon cell line (“SGR 11-7”) stably expresses HCV replicon RNA, genotype 1b, which consists of (i) the HCV 5′UTR fused to the first 12 amino acids of the capsid protein, (ii) the neomycin phosphotransferase gene (neo), (iii) the IRES from encephalomyocarditis virus (EMCV) and (iv) HCV […] to NS5B genes and the HCV 3′UTR. Another replicon cell line (“Huh-1a7”) described by Yi et. al. (Yi et. al. (2004) Journal of Virology 78(15):7904-15, expressly incorporated by reference in its entirety) stably expresses HCV replicon RNA, genotype 1a, which consists of (i) the HCV 5′UTR fused to the first 12 amino acids of the capsid protein, (ii) the HIV tat protein, (iii) the neomycin phosphotransferase gene (neo), (iv) the IRES from encephalomyocarditis virus (EMCV) and (vi) HCV NS3 to NS5B genes that harbor cell culture adaptive mutations (Q1067R, K1691R, S2204I) and the HCV 3′UTR.
(§3) These cell lines are maintained at 37° C., 5% CO2, 100% relative humidity in DMEM (Cat#11965-084, Invitrogen), with 10% fetal calf serum (“FCS”, Invitrogen), 1% non-essential amino acids (Invitrogen), 1% of Glutamax (Invitrogen), 1% of 100× penicillin/streptomycin (Cat#15140-122, Invitrogen) and Geneticin (Cat#10131-027, Invitrogen) at 0.75 mg/ml or 0.25 mg/ml for 11-7 and Huh-1a7 cells, respectively.
(§4) EC50 values of single agent compounds were determined by HCV RNA detection using quantitative RT-PCR, according to the manufacturer's instructions, with a TAQMAN® One-Step RT-PCR Master Mix Reagents Kit (Cat#AB 4309169, Applied Biosystems) on an ABI Model 7500 thermocycler. EC50 values of combinations are similarly determined by HCV RNA detection using quantitative RT-PCR. The TAQMAN primers to use for detecting and quantifying HCV RNA obtained from Integrated DNA Technologies. HCV RNA is normalized to GAPDH RNA levels in drug-treated cells, which is detected and quantified using the Human GAPDH Endogenous Control Mix (Applied Biosystems, AB 4310884E). Total cellular RNA is purified from 96-well plates using the RNAqueous 96 kit (Ambion, Cat#AM1812). Chemical agent cytotoxicity is evaluated using an MTS assay according to the manufacturer's directions (Promega).
(§5) The compounds of the present invention can be effective against the HCV 1a and 1b genotypes. It should also be understood that the compounds of the present invention can inhibit multiple genotypes of HCV. In one embodiment, compounds of the present invention are active against the 1a, 1b, 2a, 2b, 3a, 4a, and 5a genotypes. […] EC50 ranges against HCV 1a or 1b are as follows: A>1 μM; B 0.1-1 μM; C<0.1 μM.
In general terms: A replicon is a self-replicating genome or part of one, used to study replication in cells.

A further test concerns HCV 1b genotype replicon. Kind of test: HCV replicon assay, qRT-PCR, genotype 1b (SGR 11-7 replicon cell line). The class given is cell-based, HCV (strain Conl. Particulars: Hepatitis C virus; Genotype-1b replicon, HCV RNA by qRT-PCR normalized to GAPDH RNA.
Source text: as §1, §2, §3, §4, §5

Regarding `C[C@H](N[P@](=O)(OC[C@H]1O[C@@H](n2ccc(=O)[nH]c2=O)[C@@](O)(C#CCl)C1O)Oc1cccc2ccccc12)C(=O)OCC(C)(C)C` (some centres unmarked) [Example 4], the EC50 in the test on HCV 1a genotype replicon and in the test with HCV 1b genotype replicon was below 0.1 µM in each case.
For the molecule `C[C@H](NP(=O)(OC[C@H]1O[C@@H](n2ccc(=O)[nH]c2=O)[C@@](O)(C#CCl)C1O)Oc1cccc2ccccc12)C(=O)OCc1ccccc1` (some centres unmarked) [Example 6], the EC50 in the test on HCV 1a genotype replicon and in the test on HCV 1b genotype replicon was 0.1 to 1 µM throughout.
With `O=c1ccn([C@@H]2O[C@H](CO)C(O)C2(O)C#CCl)c(=O)[nH]1` (some centres unmarked) [Example 1], the EC50 in the test with HCV 1a genotype replicon and in the test with HCV 1b genotype replicon was above 1 µM in each case.
For the molecule `C[C@H](N[P@@](=O)(OC[C@H]1O[C@@H](n2ccc(=O)[nH]c2=O)[C@@](O)(C#CCl)C1O)Oc1cccc2ccccc12)C(=O)OCC(C)(C)C` (some centres unmarked) [Example 3], the EC50 with HCV 1a genotype replicon and in the test on HCV 1b genotype replicon was 0.1 to 1 µM each time.
Take `CCCCOC(=O)[C@H](C)NP(=O)(OC[C@H]1O[C@@H](n2ccc(=O)[nH]c2=O)[C@@](O)(C#CCl)C1O)Oc1cccc2ccccc12` (some centres unmarked) [Example 5]: the EC50 with HCV 1a genotype replicon and in the test on HCV 1b genotype replicon was 0.1 to 1 µM in each case.
On to `C[C@H](NP(=O)(OC[C@H]1O[C@@H](n2ccc(=O)[nH]c2=O)[C@@](O)(C#CCl)C1O)Oc1cccc2ccccc12)C(=O)OC1CCCC1` (some centres unmarked) [Example 9], for which the EC50 with HCV 1a genotype replicon and in the test on HCV 1b genotype replicon was 0.1 to 1 µM each time.
With `CCCCCOC(=O)[C@H](C)NP(=O)(OC[C@H]1O[C@@H](n2ccc(=O)[nH]c2=O)[C@@](O)(C#CCl)C1O)Oc1cccc2ccccc12` (some centres unmarked) [Example 7], the EC50 with HCV 1a genotype replicon and in the test with HCV 1b genotype replicon was 0.1 to 1 µM each time.
For `C[C@H](NP(=O)(OC[C@H]1O[C@@H](n2ccc(=O)[nH]c2=O)C(O)(C#CCl)C1O)Oc1cccc2ccccc12)C(=O)OC1CCCCC1` (some centres unmarked) [Example 10], the EC50 with HCV 1a genotype replicon and in the test on HCV 1b genotype replicon was above 1 µM in each case.
For `CC(C)OC(=O)[C@H](C)NP(=O)(OC[C@H]1O[C@@H](n2ccc(=O)[nH]c2=O)[C@@](O)(C#CCl)C1O)Oc1cccc2ccccc12` (some centres unmarked) [Example 8], the EC50 in the test with HCV 1a genotype replicon was 0.1 to 1 µM; in the test with HCV 1b genotype replicon it was above 1 µM.
As to `COC(=O)[C@H](C)NP(=O)(OC[C@H]1O[C@@H](n2ccc(=O)[nH]c2=O)[C@@](O)(C#CCl)C1O)Oc1cccc2ccccc12` (some centres unmarked) [Example 2], the EC50 with HCV 1a genotype replicon and in the test on HCV 1b genotype replicon was 0.1 to 1 µM throughout.
